Experimental findings from patent US20240327415A1, “Multicomponent Complexes, Including Salts, Crystalline Forms, and Hydrates and Solvates of ENT1 Inhibitors” (iTeos Belgium SA, priority 2023, published 2024) are described below.

Each structure is given as a SMILES string. Where two headings read alike, the source gives them in different places.

Holding throughout (format): physicochemical
A short description of data set [1]: seven-day solid stability studies (ambient; 40° C./75% RH; 80° C.), XRPD and HPLC. A digest of the protocol:
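Solid samples of the free base and sulfate salt forms held 7 days under three conditions: ambient light, temperature and humidity (open vial), 40° C./75% RH (open vial), and 80° C. (closed vial). Residual solids then analysed by XRPD and HPLC purity.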

A short description of data set [2]: TG/DSC and DSC thermal analysis. As to conditions: for TGA/DSC thermal event, onset: value before the brackets; for TGA/DSC thermal event, peak: value in brackets. How it is done:
In the examples below, to measure TGA/DSC, 2-10 mg of material was added into a pre-tared open aluminum pan and loaded into a TA Instruments Discovery SDT 650 Auto—Simultaneous DSC and held at room temperature. The sample was then heated at a rate of 10° C./min from 30° C. to 400° C. during which time the change in sample weight was recorded along with the heat flow response (DSC). Nitrogen was used as the sample purge gas, at a flow rate of 200 cm^3/min.
(§1) METHOD A: In Example 3, 1-5 mg of material was weighed into an aluminum DSC pan and sealed non-hermetically with a pierced aluminum lid. The sample pan was then loaded into a TA DSC2500 and held at 20° C. Once a stable heat-flow response was obtained, the sample and reference were heated to an upper temperature of 200° C. at a scan rate of 10° C./min and the resulting heat flow response monitored. The sample was held at the upper temperature for 3 minutes, before it was cooled at 10° C./min to 20° C., reheated to the upper temperature at 10° C./min, and then cooled again to 20° C. at the same rate. Nitrogen was used as the purge gas, at a flow rate of 50 cm^3/min.
as §1, with “B:” for “A:”, “Examples 2A, 14, and 17,” for “Example 3,”, “−80° C. and then” for “20° C.,”, “C./min.” for “C./min, and then cooled again to 20° C. at the same rate.”
METHOD C: In Example 5, 1-5 mg of a sample were weighed into an aluminum DSC pan and sealed non-hermetically with an aluminum lid. The sample pan was then loaded into a TA Instruments Discovery DSC 2500 differential scanning calorimeter equipped with a RC90 cooler. The sample and reference were heated to 190° C. at a scan rate of 10° C./min and the resulting heat flow response monitored. The sample was re-cooled to −80° C. and then reheated again to 190° C. all at 10° C./min. Nitrogen was used as the purge gas, at a flow rate of 50 cm^3/min.
2-10 mg of material was added into a pre-tared open aluminum pan and loaded into a TA Instruments Discovery SDT 650 Auto-Simultaneous DSC and held at room temperature. The sample was then heated at a rate of 10° C./min from 30° C. to 400° C. during which time the change in sample weight was recorded along with the heat flow response (DSC). Nitrogen was used as the sample purge gas, at a flow rate of 200 cm^3/min.
as §1, with “1-5” for “METHOD A: In Example 3, 1-5”, “min,” for “minutes,”
(DSC measures the heat that a sample takes up or gives off during a temperature scan.)

The nature of data set [3]: XRPD characterization (summary Table 59). Particulars: crystallinity.
[4] abbreviates: 7 days, 40° C./75% RH (open vial).
Setting [5] is: listed as Crystalline Form 4 Compound 1 mono(hydrogen sulfate).

In the case of `CCCN1CCNCCCNC(=O)c2cc(OC)c(OC)c(c2)OCCC[C@@H](OC(=O)c2cc(OC)c(OC)c(OC)c2)CC1`, the “7-day Stability studies: Purity compared to input” value in data set [1] is reported as “Purity similar”. In data set [1] (setting [4]), this compound gave an HPLC of 99.86 % area and an XRPD of 2. In data set [1] (7 days, 80° C. (closed vial)), this compound yielded an HPLC of 99.85 % area and an XRPD of 2. In data set [1] (7 days, Ambient (open vial)), this compound displayed an HPLC of 99.86 % area and an XRPD of 2. In data set [1] (Input sample), the HPLC turned out to be 99.92 % area and the XRPD amounted to 2. Besides, the “7-day Stability studies: solid form” value in data set [1] (all conditions) was “No change”. Besides, in data set [2], the “DSC (onset/peak): onset” value amounted to 144 °C; the “DSC (onset/peak): peak” value worked out at 158 °C; the TGA/DSC mass loss turned out to be 7.3% mass loss; the “TGA/DSC thermal event, onset” value worked out at 130 °C. Moreover, in data set [2], the “TGA/DSC thermal event, peak” value came to 149 °C. Moreover, the XRPD entry in data set [3] is reported as “Crystalline”.

In the case of `COc1cc(C(=O)O[C@@H]2CCCOc3cc(cc(OC)c3OC)C(=O)NCCCN3CCCN(CC2)CC3)cc(OC)c1OC.O=S(=O)(O)O`, in data set [1], the “7-day Stability studies: Purity compared to input” value is recorded as “Purity similar”. For the same compound, the “solid form by XRPD after storage” value in data set [1] (7 days, 40° C./75% RH) is listed as “retained”. Also, the “solid form by XRPD after storage” value in data set [1] (7 days, 80° C.) is “predominantly amorphous”. In data set [1] (7 days, ambient conditions), the “solid form by XRPD after storage” value was “retained”. The “7-day Stability studies: solid form” value in data set [1] (all conditions) was “Form 4 retained”. In data set [1] (at 80° C., printed 'crystallinity significantly reduced'), the “7-day Stability studies: crystallinity” value is “reduced at 80° C.)”. For the same compound, in data set [2], the “DSC (onset/peak): onset” value was determined as 113 °C and the “DSC (onset/peak): peak” value is 119 °C. Moreover, in data set [2] (setting [5]), the TGA/DSC mass loss is on record as 15.5% mass loss; the “TGA/DSC thermal event, onset” value turned out to be 148 °C; the “TGA/DSC thermal event, peak” value stood at 160 °C. Further, the XRPD entry in data set [3] is reported as “Crystalline”.

Turning to `COc1cc(C(=O)O[C@@H]2CCCOc3cc(cc(OC)c3OC)C(=O)NCCCN3CCCN(CC2)CC3)cc(OC)c1OC.O=S(=O)(O)O.O=S(=O)(O)O` [crystalline Form 3 Compound 1 di(hydrogen sulfate)], the “7-day Stability studies: Purity compared to input” value in data set [1] is “Purity similar”. Also, the “solid form by XRPD after storage” value in data set [1] (7 days, 40° C./75% RH) was “Conversion to crystalline Form 2 Compound 1 di(hydrogen sulfate) trihydrate”; in data set [1] (7 days, 80° C.), “mixture of crystalline Form 3 Compound 1 di(hydrogen sulfate) and crystalline Form 9 Compound 1 di(hydrogen sulfate)”; in data set [1] (7 days, ambient conditions) it was “conversion to crystalline Form 6 Compound 1 di(hydrogen sulfate)”. The “7-day Stability studies: solid form” value in data set [1] (at 80° C.) is “Form 9 at 80 °C”; in data set [1] (at ambient), “Form 6 at ambient;”. In data set [2], this compound yielded a TGA/DSC mass loss of 3.1% mass loss. Also, in data set [2], the “TGA/DSC thermal event, onset” value was 163 °C. The “TGA/DSC thermal event, peak” value in data set [2] is 177 °C. For the same compound, the XRPD result in data set [3] is listed as “Partially”.
